Assay results published in US6365572B1, “Low molecular weight peptide derivatives as inhibitors of the laminin/nidogen interaction” (Aventis Pharma Deutschland GmbH, priority 1999, dated 2002).
Read-outs that look alike come from different tables or passages of the source. Non-standard residues stand in square brackets, D forms with d. Residues, ends and D or L forms follow the SMILES beside them. *: point of attachment. Bip = N[C@@H](Cc1ccc(-c2ccccc2)cc1)C(=O)O; 1Nal = N[C@@H](Cc1cccc2ccccc12)C(=O)O; 2Nal = N[C@@H](Cc1ccc2ccccc2c1)C(=O)O; Bta = N[C@@H](Cc1csc2ccccc12)C(=O)O; NH(3-hydroxypropyl) = OCCCN*

Target: T1, laminin/nidogen interaction (laminin P1, recombinantly produced human nidogen) (Homo sapiens, UniProt P14543)
T1 construct: made in house; host or cells: HEK-293
T1 sequence (P14543 29-1247): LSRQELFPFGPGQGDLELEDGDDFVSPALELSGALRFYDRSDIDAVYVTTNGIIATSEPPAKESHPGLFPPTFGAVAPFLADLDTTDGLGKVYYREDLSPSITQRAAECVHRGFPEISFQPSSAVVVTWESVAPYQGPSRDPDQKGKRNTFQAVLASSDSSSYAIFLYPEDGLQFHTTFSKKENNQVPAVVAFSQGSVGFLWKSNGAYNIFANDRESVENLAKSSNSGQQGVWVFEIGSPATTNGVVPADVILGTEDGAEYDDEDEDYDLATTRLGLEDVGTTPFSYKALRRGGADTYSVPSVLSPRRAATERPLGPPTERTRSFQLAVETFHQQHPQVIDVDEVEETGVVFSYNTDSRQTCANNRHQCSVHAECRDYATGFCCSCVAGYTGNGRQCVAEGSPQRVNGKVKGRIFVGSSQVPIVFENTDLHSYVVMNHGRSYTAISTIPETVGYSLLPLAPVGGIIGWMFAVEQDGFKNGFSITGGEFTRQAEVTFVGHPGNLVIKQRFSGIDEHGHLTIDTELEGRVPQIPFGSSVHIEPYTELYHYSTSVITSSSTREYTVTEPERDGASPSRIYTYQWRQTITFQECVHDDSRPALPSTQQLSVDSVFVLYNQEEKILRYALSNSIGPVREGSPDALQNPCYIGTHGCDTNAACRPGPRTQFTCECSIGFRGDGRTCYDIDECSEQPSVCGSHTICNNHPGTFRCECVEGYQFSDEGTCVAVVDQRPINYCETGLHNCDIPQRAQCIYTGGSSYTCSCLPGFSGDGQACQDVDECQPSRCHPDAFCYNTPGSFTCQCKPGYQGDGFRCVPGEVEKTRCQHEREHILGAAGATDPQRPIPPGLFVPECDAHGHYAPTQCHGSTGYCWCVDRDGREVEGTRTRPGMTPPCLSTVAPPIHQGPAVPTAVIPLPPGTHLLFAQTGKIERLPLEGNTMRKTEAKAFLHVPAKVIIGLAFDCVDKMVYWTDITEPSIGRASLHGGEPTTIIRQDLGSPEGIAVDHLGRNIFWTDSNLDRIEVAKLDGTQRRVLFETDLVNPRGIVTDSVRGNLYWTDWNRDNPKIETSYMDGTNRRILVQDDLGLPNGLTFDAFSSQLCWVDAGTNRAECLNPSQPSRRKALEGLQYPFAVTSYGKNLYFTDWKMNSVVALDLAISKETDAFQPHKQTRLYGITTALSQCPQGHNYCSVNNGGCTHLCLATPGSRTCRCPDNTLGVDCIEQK
Experiment: HTS screening assay (time-resolved fluorescence), inhibition of laminin/nidogen binding
Conditions: read-out: IC50
Method: 5) The compound stocks were preincubated with nidogen (10 μl compound stock to 90 μl nidogen solution) and the assay was performed as described in the attached protocol, yielding a final screening concentration of 2.7 μM per compound. The isolation of laminin P1 from human placenta, human nidogen from transfected HEK-293 cells and mouse laminin γ1III 3-5 from HEK-293 cells is described in WO 98/31709. 3.1.1. HTS screening assay (highly sensitive assay variant): Time-Resolved Fluorescence Assay Coating of test tubes Microtiter plates (for example FluoroNunc®) were coated with 75 μl of a 0.1 μg/ml solution of laminin P1 (in 0.159 g of Na2CO3, 0.293 g of NaHCO3, 0.02 g of NaN3/liter, pH 9.2) at room temperature for 1 hour. The solution was then tipped off, and free binding sites were blocked by incubation with 0.5% BSA (in 7.9 g of NaCl, 1.2 g of Na2HPO4, 0.31 g of KCl, 0.23 g of NaH2PO4, 0.04% Tween 20/liter, pH 7.2) at room temperature for 0.5 hour. Completion of the blocking reaction was followed by decantation of the solution and washing once with 250 μl of washing buffer (PBS/0.04% Tween). Sequential inhibition In parallel with the coating, a preincubation of 85-100 μl of a 0.25 nM nidogen solution (recombinantly produced human nidogen) with inhibitor or standard was carried out in a separate reaction vessel (1 hour at room temperature in 7.9 g of NaCl, 1.2 g of Na2HPO4, 0.31 g of KCl, 0.23 g of NaH2PO4, 0.04% Tween 20/liter, 0.5% BSA, pH 7.2). 75 μl of the preincubation (nidogen+inhibitor or standard) were transferred into the coated wells of the microtiter plate and incubated at room temperature for 1 hour. This was followed by washing twice with PBS/0.04% Tween. Detection of the bound nidogen took place by incubation (at room temperature) for 1 hour with 75 μl of a specific antibody preparation obtained from yolks of eggs from a chicken immunized with human nidogen. The IgY fraction was used in a dilution of 1:500 in PBS/0.04% Tween. The complex of nidogen and specifically bound antibodies was, after washing twice with PBS/0.04% Tween, detected by adding anti-chicken IgY-biotin (75 μl of a 1:2500 dilution; Promega, Madison, Wis. 53711, 608-274-4330). An incubation time of 1 hour and washing twice with PBS/0.04% Tween were followed for this purpose by incubation with streptavidin-europium (Wallac; 1 hour at room temperature) and washing twice with PBS/0.04% Tween. It was finally possible, after adding 100 μl of enhancement solution (Wallac) and shaking for 5 minutes, to measure a fluorescence signal in a Victor multilabel counter using the europium protocol. The relation between the amount, of bound nidogen in the solutions with inhibitor and that of nidogen without added inhibitor was found.

[1] = results table 1.3, synthesized compounds 1 to 43
[2] = hit structures recovered from the pentamer library screening

Structure (SMILES) | IC50 [1] | IC50 [2]
CC(C)[C@H](NC(=O)[C@H](C)NC(=O)[C@H](CC(N)=O)NC(=O)C1[C@@H](c2ccc3ccccc3c2)CCN1C(=O)CCC(=O)O)C(N)=O (stereo in doubt) [Compound 34, Succinyl-L-(3R)-(2-naphthyl)prolyl-L-asparaginyl-L-alanyl-L-valine-amide] | 27 nM | –
CC[C@H](C)[C@H](NC(=O)[C@@H](N)CC(N)=O)C(=O)N[C@@H](CC(=O)O)C(=O)N1CCC[C@H]1C(=O)N[C@@H](CC(N)=O)C(=O)N[C@@H](C)C(=O)N[C@H](C(=O)NCC(=O)NCCCO)C(C)C [Compound 1, L-Asparaginyl-L-isoleucyl-L-aspartyl-L-prolyl-L-asparaginyl-L-alanyl-L-valyl-glycine-3-hydroxypropylamide, reference compound] (H-NIDPNAVG-{NH(3-hydroxypropyl)}) | 3900 nM | –
CC(C)[C@H](NC(=O)[C@H](C)NC(=O)[C@H](CC(N)=O)NC(=O)[C@@H]1CCCN1C(=O)[C@@H](N)CC(=O)O)C(=O)NCC(=O)NCCCO [Compound 2, L-Aspartyl-L-prolyl-L-asparaginyl-L-alanyl-L-valyl-glycine-3-hydroxypropylamide, reference compound] (H-DPNAVG-{NH(3-hydroxypropyl)}) | 7700 nM | –
CC(C)[C@H](NC(=O)[C@H](CC(=O)O)NC(=O)[C@H](CC(N)=O)NC(=O)[C@H](Cc1ccc2ccccc2c1)NC(=O)[C@@H](N)CC(=O)O)C(=O)NCC(=O)NCCCO [Compound 3, L-Aspartyl-L-3-(2-naphthyl)alanyl-L-asparaginyl-L-aspartyl-L-valyl-glycine-3-hydroxypropylamide] (H-D[2Nal]NDVG-{NH(3-hydroxypropyl)}) | 510 nM | 430 nM
CC(C)[C@H](NC(=O)[C@H](CO)NC(=O)[C@H](CC(N)=O)NC(=O)[C@H](Cc1ccc2ccccc2c1)NC(=O)[C@@H](N)CC(=O)O)C(=O)NCC(=O)NCCCO [Compound 4, L-Aspartyl-L-3-(2-naphthyl)alanyl-L-asparaginyl-L-seryl-L-valyl-glycine-3-hydroxypropylamide] (H-D[2Nal]NSVG-{NH(3-hydroxypropyl)}) | 380 nM | 490 nM
CC(C)[C@H](NC(=O)[C@H](C)NC(=O)[C@H](CC(N)=O)NC(=O)[C@H](Cc1ccc2ccccc2c1)NC(=O)[C@@H](N)CC(=O)O)C(=O)NCC(=O)NCCCO [Compound 5, L-Aspartyl-L-3-(2-naphthyl)alanyl-L-asparaginyl-L-alanyl-L-valyl-glycine-3-hydroxypropylamide] (H-D[2Nal]NAVG-{NH(3-hydroxypropyl)}) | 750 nM | 370 nM
CC[C@H](C)[C@H](NC(=O)[C@H](CC(=O)O)NC(=O)[C@H](CC(N)=O)NC(=O)[C@H](Cc1ccc2ccccc2c1)NC(=O)[C@@H](N)CC(=O)O)C(=O)NCC(=O)NCCCO [Compound 6] (H-D[2Nal]NDIG-{NH(3-hydroxypropyl)}) | 1380 nM | 640 nM
CC[C@H](C)[C@H](NC(=O)[C@H](CO)NC(=O)[C@H](CC(N)=O)NC(=O)[C@H](Cc1ccc2ccccc2c1)NC(=O)[C@@H](N)CC(=O)O)C(=O)NCC(=O)NCCCO [Compound 7, L-Aspartyl-L-3-(2-naphthyl)alanyl-L-asparaginyl-L-seryl-L-isoleucyl-glycine-3-hydroxypropylamide] (H-D[2Nal]NSIG-{NH(3-hydroxypropyl)}) | 600 nM | 810 nM
CC[C@H](C)[C@H](NC(=O)[C@H](C)NC(=O)[C@H](CC(N)=O)NC(=O)[C@H](Cc1ccc2ccccc2c1)NC(=O)[C@@H](N)CC(=O)O)C(=O)NCC(=O)NCCCO [Compound 8, L-Aspartyl-L-3-(2-naphthyl)alanyl-L-asparaginyl-L-alanyl-L-isoleucyl-glycine-3-hydroxypropylamide] (H-D[2Nal]NAIG-{NH(3-hydroxypropyl)}) | 700 nM | 470 nM
CC(C)[C@H](NC(=O)[C@H](C)NC(=O)[C@H](CC(N)=O)NC(=O)[C@H](Cc1cccc2ccccc12)NC(=O)[C@@H](N)CC(=O)O)C(=O)NCC(=O)NCCCO [Compound 9, L-Aspartyl-L-3-(1-naphthyl)alanyl-L-asparaginyl-L-alanyl-L-valyl-glycine-3-hydroxypropylamide] (H-D[1Nal]NAVG-{NH(3-hydroxypropyl)}) | 8250 nM | –
CC(C)[C@H](NC(=O)[C@H](C)NC(=O)[C@H](CC(N)=O)NC(=O)[C@H](Cc1c[nH]c2ccccc12)NC(=O)[C@@H](N)CC(=O)O)C(=O)NCC(=O)NCCCO [Compound 10, L-Aspartyl-L-tryptophanyl-L-asparaginyl-L-alanyl-L-valyl-glycine-3-hydroxypropylamide] (H-DWNAVG-{NH(3-hydroxypropyl)}) | 8570 nM | –
CC(C)[C@H](NC(=O)[C@H](C)NC(=O)[C@H](CC(N)=O)NC(=O)[C@H](Cc1ccccc1)NC(=O)[C@@H](N)CC(=O)O)C(=O)NCC(=O)NCCCO [Compound 11, L-Aspartyl-L-phenylalanyl-L-asparaginyl-L-alanyl-L-valyl-glycine-3-hydroxypropylamide] (H-DFNAVG-{NH(3-hydroxypropyl)}) | 3380 nM | –
CC(C)[C@H](NC(=O)[C@H](C)NC(=O)[C@H](CC(N)=O)NC(=O)[C@H](Cc1ccc(O)cc1)NC(=O)[C@@H](N)CC(=O)O)C(=O)NCC(=O)NCCCO [Compound 12, L-Aspartyl-L-tyrosyl-L-asparaginyl-L-alanyl-L-valyl-glycine-3-hydroxypropylamide] (H-DYNAVG-{NH(3-hydroxypropyl)}) | 3790 nM | –
CC(C)[C@H](NC(=O)[C@H](C)NC(=O)[C@H](CC(N)=O)NC(=O)[C@H](Cc1csc2ccccc12)NC(=O)[C@@H](N)CC(=O)O)C(=O)NCC(=O)NCCCO [Compound 13, L-Aspartyl-L-3-(3-benzothienyl)alanyl-L-asparaginyl-L-alanyl-L-valyl-glycine-3-hydroxypropylamide] (H-D[Bta]NAVG-{NH(3-hydroxypropyl)}) | 7030 nM | –
CC(C)[C@H](NC(=O)[C@H](C)NC(=O)[C@H](CC(N)=O)NC(=O)[C@H](Cc1ccc(-c2ccccc2)cc1)NC(=O)[C@@H](N)CC(=O)O)C(=O)NCC(=O)NCCCO [Compound 14, L-Aspartyl-L-3-(4-biphenyl)alanyl-L-asparaginyl-L-alanyl-L-valyl-glycine-3-hydroxypropylamide] (H-D[Bip]NAVG-{NH(3-hydroxypropyl)}) | 940 nM | –
